The values that follow come from patent US12234245B2, “Sulfonimidamide compounds as inhibitors of interleukin-1 activity” (Genentech, Inc., priority 2018, dated 2025).

In this assay the target is NLRP3 inflammasome (Homo sapiens, UniProt Q96P20). Description: THP-1 ASC-GFP speck assay. Type of assay: cell-based. Details: host or cells: THP-1 ASC-GFP cells, PMA-differentiated, LPS-primed, nigericin-stimulated. The conditions noted are these: THP-1 ASC-GFP cells, PMA differentiated, LPS primed, 10 μM nigericin; read-out: THP1 ASC Speck IC50. The method, then: THP-1 ASC-GFP cell line was purchased from Invivogen, San Diego, for inflammasome activation assay. THP-1 ASC-GFP cells stably express a 37.6 kDa ASC::GFP fusion protein that enables monitoring of spec formation by microscopy after activation of NLRP3 dependent inflammasome pathway. Cells were maintained at a density of 600,000 cells/mL in growth media consisting of RPMI 1640, 2 mM L-glutamine, 25 mM HEPES and 10% heat inactivated fetal bovine serum at 37° C. and 5% CO2. Cells were passaged every 3-4 days and used for assays for up to 20 passages.
THP-1 ASC-GFP cells were collected by centrifuging cells at 800 RPM for 5 minutes. Cell culture supernatant was removed and cells were re-suspended in fresh media at density of 1×10^6 cells/mL in assay media consisting of RPMI 1640, 2 mM L-glutamine, 25 mM HEPES and 10% heat inactivated fetal bovine serum. Phorbol 12-myristate 13-acetate (PMA) (Invivogen, tlrl-pma) was added to the cell suspension at a final concentration of 500 ng/ml and mixed thoroughly. 40,000 cells were added per well of a 384 well plate and differentiated into macrophages overnight at 37° C. and 5% CO2. Cells were primed with 1 μg/mL of lipopolysaccharide (Invivogen Ultrapure lipopolysaccharide from E. coli, tlrl-3pelps) in assay media for 3 hours at 37° C. and 5% CO2. After priming, media was removed and THP-1 ASC-GFP cells were preincubated with serially diluted test compounds with starting concentration of 40 μM followed by 2-fold dilution for a 20-point curve or vehicle (DMSO) for 30 min in assay media at 37° C. and 5% CO2. Cells were then stimulated with 10 μM nigericin (Invivogen, tlrl-nig-5) for 90 min at 37° C. and 5% CO2 to activate NLRP3 dependent inflammasome pathway and spec formation. After stimulation, cells were fixed with 4.8% paraformaldehyde (Electron Microscopy Sciences #15710-S) and incubated at room temperature for 15 min. Cells were then washed 3-times with 100 μL of phosphate buffered saline and permeabilized in the presence of premeablization/block buffer for 20 min at room temperature. Cells were then washed 3-times with 100 μL phosphate buffered saline and incubated for 1 hr at room temperature in the presence of hoechst. After staining with Hoechst, cells were washed 3-times with 100 μL phosphate buffered saline and imaged for ASC spec formation.
THP-1 ASC-GFP cells were imaged in 488 and Hoechst channels. Hoechst channel was used for cell count and 488 channel was used to identify number of GFP ASC specks in imaged fields. Percentage of cells with a spec was calculated by dividing the number of GFP positive spots by total number of cells.

Chain of NLRP3 inflammasome (Q96P20 whole entry, the tested form may be a part): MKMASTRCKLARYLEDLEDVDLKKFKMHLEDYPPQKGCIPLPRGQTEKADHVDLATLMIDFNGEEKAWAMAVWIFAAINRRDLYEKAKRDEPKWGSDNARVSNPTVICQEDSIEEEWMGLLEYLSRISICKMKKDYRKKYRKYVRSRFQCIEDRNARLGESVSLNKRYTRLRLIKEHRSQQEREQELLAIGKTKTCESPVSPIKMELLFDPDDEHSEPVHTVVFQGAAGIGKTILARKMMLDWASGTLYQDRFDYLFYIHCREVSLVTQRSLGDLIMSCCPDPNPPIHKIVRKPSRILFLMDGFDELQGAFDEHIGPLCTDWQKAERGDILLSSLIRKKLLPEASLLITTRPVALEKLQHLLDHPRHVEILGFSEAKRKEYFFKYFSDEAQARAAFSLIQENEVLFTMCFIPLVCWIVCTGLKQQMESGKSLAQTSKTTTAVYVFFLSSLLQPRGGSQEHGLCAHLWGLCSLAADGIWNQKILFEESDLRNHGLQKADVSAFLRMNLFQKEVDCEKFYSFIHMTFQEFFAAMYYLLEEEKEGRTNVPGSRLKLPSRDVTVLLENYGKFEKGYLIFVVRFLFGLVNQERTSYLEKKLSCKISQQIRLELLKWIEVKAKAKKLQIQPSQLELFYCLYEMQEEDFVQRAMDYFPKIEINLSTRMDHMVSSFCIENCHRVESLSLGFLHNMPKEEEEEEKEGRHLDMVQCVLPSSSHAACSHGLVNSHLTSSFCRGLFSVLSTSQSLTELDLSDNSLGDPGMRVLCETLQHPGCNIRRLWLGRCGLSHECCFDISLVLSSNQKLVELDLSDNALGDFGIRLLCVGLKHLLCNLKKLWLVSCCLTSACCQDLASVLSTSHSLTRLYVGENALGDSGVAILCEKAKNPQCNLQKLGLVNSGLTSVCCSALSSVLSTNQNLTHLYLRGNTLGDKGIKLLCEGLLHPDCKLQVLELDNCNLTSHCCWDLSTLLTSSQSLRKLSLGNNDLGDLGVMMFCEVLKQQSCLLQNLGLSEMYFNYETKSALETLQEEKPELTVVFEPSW

For `NS(=O)(=NC(=O)Nc1c2c(cc3c1CCC3)CCC2)c1cnn2c1OCC2` (single isomer, unassigned) [Example 125], the IC50 (as a rule, the concentration at which inhibition is half-maximal) was 1700 nM.

Consider `CO[C@H]1CCOc2c([S@@](=O)(=NC(=O)Nc3c4c(cc5c3CCC5)CCC4)NC#N)cnn2C1` (single isomer, unassigned) [Example 112], for which the IC50 is 610 nM.

Take `COC1CCOc2c(S(N)(=O)=NC(=O)Nc3c4c(cc5c3CCC5)CCC4)cnn2C1` (single isomer, unassigned) [Example 90]: the IC50 worked out at 320 nM.

For the compound `COC1CCn2ncc(S(N)(=O)=NC(=O)Nc3c4c(cc5c3CCC5)CCC4)c2OC1` (single isomer, unassigned) [Example 87], the IC50 was determined as 2900 nM.

With `CNCCOc1cc(C(C)C)c(NC(=O)N=S(N)(=O)c2cnn3c2OCCC3)c(C(C)C)n1` (single isomer, unassigned) [Example 71], the IC50 was above 20000 nM.

As for `CO[C@@H]1CCOc2c([S@](=O)(=NC(=O)Nc3c4c(cc5c3CCC5)CCC4)NC#N)cnn2C1` (single isomer, unassigned) [Example 121], the IC50 was 2700 nM.

Turning to `COc1cc(C(C)C)c(NC(=O)N=S(N)(=O)c2cnn3c2OCCC3)c(C(C)C)n1` (single isomer, unassigned) [Example 102], the IC50 turned out to be 5100 nM.

Regarding `NS(=O)(=NC(=O)Nc1c2c(cc3c1CCC3)CCC2)c1cnn2c1NCCC2` (single isomer, unassigned) [Example 73], the half-maximal inhibitory concentration (IC50) is above 20000 nM.

In the case of `COC1COc2c(S(=O)(=NC(=O)Nc3c4c(cc5c3CCC5)CCC4)NC(C)=O)cnn2C1` (single isomer, unassigned) [Example 116], the IC50 is 2100 nM.

Turning to `CC(C)c1nn(CC2CC2)c(C(C)C)c1NC(=O)N=S(N)(=O)c1cnn2c1OCCC2` (single isomer, unassigned) [Example 113], the half-maximal inhibitory concentration (IC50) was above 20000 nM.

With `CC1CCc2cc3c(c(NC(=O)N=S(N)(=O)c4cnn5c4OCC5)c21)CCC3` (single isomer, unassigned) [Example 144], the IC50 worked out at 56 nM.

On to `COc1cc(-c2ccc(NC(=O)N=S(N)(=O)c3cnn4c3OCC(OC)C4)c3c2CCC3)ccn1` (single isomer, unassigned) [Example 152], for which the 50% inhibitory concentration (IC50) came to 4100 nM.

Take `CC(C)c1nn(CC(F)F)c(C(C)C)c1NC(=O)N=S(N)(=O)c1cnn2c1OCCC2` (single isomer, unassigned) [Example 97]: the 50% inhibitory concentration (IC50) stood at 1300 nM.

For `CC1CCc2cc3c(c(NC(=O)N=S(N)(=O)c4cnn5c4OCC5)c21)CCC3` (single isomer, unassigned) [Example 146], the IC50 was found to be 2600 nM.

On to `CC1(C)COc2c(S(N)(=O)=NC(=O)Nc3c4c(cc5c3CC(F)C5)CCC4)cnn2C1` (single isomer, unassigned) [Example 154], for which the half-maximal inhibitory concentration (IC50) was determined as 1800 nM.

`NS(=O)(=NC(=O)Nc1c2c(cc3c1CC3)CCC2)c1cnn2c1OCCC2` (single isomer, unassigned) [Example 142]: the IC50 was found to be 84 nM.

Turning to `CNC1CCOc2c(S(N)(=O)=NC(=O)Nc3c4c(cc5c3CCC5)CCC4)cnn2C1` (single isomer, unassigned) [Example 106], the 50% inhibitory concentration (IC50) stood at 150 nM.

Turning to `CC1CCc2cc3c(c(NC(=O)N=S(N)(=O)c4cnn5c4OCCC5)c21)CCC3` (single isomer, unassigned) [Example 126], the IC50 is above 20000 nM.

`CN1CCCn2ncc(S(N)(=O)=NC(=O)Nc3c4c(cc5c3CCC5)CCC4)c21` (single isomer, unassigned) [Example 107]: the half-maximal inhibitory concentration (IC50) was 9000 nM.

`CC1CCc2cc3c(c(NC(=O)N=S(N)(=O)c4cnn5c4OCCC5)c21)CCC3` (single isomer, unassigned) [Example 129]: the concentration for half-maximal inhibition (IC50) was 19 nM.

For the compound `NS(=O)(=NC(=O)Nc1c2c(cc3c1CC3)CCC2)c1cnn2c1OCCC2` (single isomer, unassigned) [Example 141], the IC50 was determined as 1600 nM.

As to `CC1CCc2cc3c(c(NC(=O)N=S(N)(=O)c4cnn5c4OCC(C)(C)C5)c21)CCC3` (single isomer, unassigned) [Example 136], the IC50 was 3800 nM.

Consider `COC1CCOc2c(S(N)(=O)=NC(=O)Nc3c4c(cc5c3CCC5)CCC4)cnn2C1` (single isomer, unassigned) [Example 91], for which the IC50 came to 490 nM.

For `CNCCOc1cc(C(C)C)c(NC(=O)N=S(N)(=O)c2cnn3c2OCCC3)c(C(C)C)n1` (single isomer, unassigned) [Example 70], the concentration for half-maximal inhibition (IC50) was above 20000 nM.

On to `CNC1CCOc2c(S(N)(=O)=NC(=O)Nc3c4c(cc5c3CCC5)CCC4)cnn2C1` (single isomer, unassigned) [Example 105], for which the IC50 amounted to 9900 nM.

In the case of `NS(=O)(=NC(=O)Nc1c2c(cc3c1CCC3)CCC2)c1cnn2c1C(F)(F)CCC2` (single isomer, unassigned) [Example 133], the half-inhibitory concentration (IC50) stood at 2800 nM.

As for `CC(C)c1nn(CC(F)F)c(C(C)C)c1NC(=O)N=S(N)(=O)c1cnn2c1OCCC2` (single isomer, unassigned) [Example 96], the half-inhibitory concentration (IC50) was above 20000 nM.

Regarding `N#CNS(=O)(=NC(=O)Nc1c2c(cc3c1CCC3)CCC2)c1cnn2c1OCCC2` (single isomer, unassigned) [Example 69], the half-maximal inhibitory concentration (IC50) stood at 30 nM.

In the case of `COC1CN([C@@H]2COc3c([S@@](=O)(=NC(=O)Nc4c5c(c(F)c6c4CCC6)CCC5)NC#N)cnn3C2)C1` (stereo in doubt) [Example 63, (R,6S)—N-cyano-N′-((8-fluoro-1,2,3,5,6,7-hexahydro-s-indacen-4-yl)carbamoyl)-6-(3-methoxyazetidin-1-yl)-6,7-dihydro-5H-pyrazolo[5,1-b][1,3]oxazine-3-sulfonimidamide, ammonia], the IC50 worked out at 140 nM.

As to `CNC1CCn2ncc(S(N)(=O)=NC(=O)Nc3c4c(cc5c3CCC5)CCC4)c2OC1` (single isomer, unassigned) [Example 132], the IC50 stood at 1200 nM.

Turning to `CC1CCc2cc3c(c(NC(=O)N=S(N)(=O)c4cnn5c4OCCC5)c21)CCC3` (single isomer, unassigned) [Example 128], the IC50 was found to be 1700 nM.

Take `CC1CCn2ncc(S(N)(=O)=NC(=O)Nc3c4c(cc5c3CCC5)CCC4)c2OC1` (single isomer, unassigned) [Example 74]: the IC50 is above 20000 nM.

Regarding `CC1CCc2cc3c(c(NC(=O)N=S(N)(=O)c4cnn5c4OCC5)c21)CCC3` (single isomer, unassigned) [Example 143], the IC50 is 1200 nM.

With `COC1COc2c(S(N)(=O)=NC(=O)Nc3c4c(cc5c3C(C)CC5)CCC4)cnn2C1` (single isomer, unassigned) [Example 150], the half-maximal inhibitory concentration (IC50) amounted to 24 nM.

`CC1CCc2cc3c(c(NC(=O)N=S(N)(=O)c4cnn5c4OCCC5)c21)CCC3` (single isomer, unassigned) [Example 127]: the half-maximal inhibitory concentration (IC50) came out at 3300 nM.

`CNC1CCn2ncc(S(N)(=O)=NC(=O)Nc3c4c(cc5c3CCC5)CCC4)c2OC1` (single isomer, unassigned) [Example 131]: the half-maximal inhibitory concentration (IC50) amounted to 920 nM.

Take `COC1COc2c(S(=O)(=NC(=O)Nc3c4c(cc5c3CCC5)CCC4)NC(C)=O)cnn2C1` (single isomer, unassigned) [Example 115]: the IC50 stood at 2500 nM.

With `COC1COc2c(S(N)(=O)=NC(=O)Nc3c4c(cc5c3C(C)CC5)CCC4)cnn2C1` (single isomer, unassigned) [Example 149], the IC50 worked out at 650 nM.

For the compound `CC1CCc2cc3c(c(NC(=O)N=S(N)(=O)c4cnn5c4OCC(C)(C)C5)c21)CCC3` (single isomer, unassigned) [Example 137], the IC50 amounted to 28 nM.
